# Literature values as cited in US12186420B2, “Compositions and methods of use for treatment or improvement of the condition and appearance of skin” (Quthero, Inc., priority 2020, dated 2025).
# Test system: keratinocyte
# Conditions: in the presence of reactive oxygen species
substance,measurement,value
QHREDGS [angiopoietin-1 derived peptide],keratinocyte death,reduce keratinocyte death
